Experimental data published in US8569267B2, “Tetracyclic tetrahydrofuran derivatives containing cyclic amine side chain” (Janssen Pharmaceutica, NV, priority 2005, dated 2013).

How the values were obtained:
[1] = target: T1, human cloned 5-HT2A receptor, expressed in L929 cells (Homo sapiens, UniProt P28223); experiment: In vitro binding affinity for 5-HT2A receptor ([125I]R91150 radioligand binding); conditions: human cloned 5-HT2A receptor in L929 cells, [125I]R91150; for IC50: read-out: 5-HT2A pIC50 (converted)
T1 construct: expressed in transfected cells; host or cells: L929 cells
Procedure, shortened: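 Competition radioligand binding to human cloned 5-HT2A receptor expressed in L929 cells, using [125I]R91150 with test compound at various concentrations. At equilibrium, receptor-bound radioactivity was separated from free and counted. Affinity reflects inhibition of radioligand binding.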

[2] = target: T2, human Dopamine D2L receptor (Homo sapiens, UniProt P14416); experiment: In vitro binding affinity for human D2L receptor ([3H]Spiperone binding); conditions: human D2L receptor-transfected CHO cell membranes; for IC50: read-out: D2L pIC50 (converted)
T2 construct: expressed in transfected cells; host or cells: CHO cells
Procedure, shortened: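 Membranes from CHO cells transfected with the receptor were incubated with [3H]Spiperone (diluted to 2 nmol/L before addition) and compound for 30 min at 37° C. Buffer was Tris-HCl, pH 7.7, with NaCl, CaCl2, MgCl2 and KCl, and non-specific binding was defined with 10^−6 mol/l Butaclamol. Bound radioactivity was collected by filtration, counted by scintillation, and competition curves calculated as percent specific binding.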

[3] = target: T3, NET (norepinephrine transporter) (Rattus norvegicus, UniProt Q63380); experiment: In vitro determination of NET reuptake inhibition ([3H]Nixosetine binding, rat brain cortex); conditions: rat brain cortex; for IC50: read-out: NET pIC50 (converted)
T3 construct: Cortex from rat brain was collected and homogenised; from tissue; host or cells: rat brain cortex
Procedure, shortened: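 Rat cortex homogenised in Tris 50 mM, NaCl 120 mM, KCl 5 mM, pH 7.4 was used for competition binding against [3H]nisoxetine. Bound radioligand was collected by filtration on GF/B filters and counted by scintillation. Percentage specific binding and competition curves were derived.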

[4] = target: T4, human cloned 5-HT2C receptor, expressed in CHO cells (Homo sapiens, UniProt P28335); experiment: In vitro binding affinity for 5-HT2C receptor ([3H]mesulergine radioligand binding); conditions: human cloned 5-HT2C receptor; for IC50: read-out: 5-HT2C pIC50 (converted)
T4 construct: expressed in transfected cells; host or cells: CHO cells
T4 sequence (P28335 33-458): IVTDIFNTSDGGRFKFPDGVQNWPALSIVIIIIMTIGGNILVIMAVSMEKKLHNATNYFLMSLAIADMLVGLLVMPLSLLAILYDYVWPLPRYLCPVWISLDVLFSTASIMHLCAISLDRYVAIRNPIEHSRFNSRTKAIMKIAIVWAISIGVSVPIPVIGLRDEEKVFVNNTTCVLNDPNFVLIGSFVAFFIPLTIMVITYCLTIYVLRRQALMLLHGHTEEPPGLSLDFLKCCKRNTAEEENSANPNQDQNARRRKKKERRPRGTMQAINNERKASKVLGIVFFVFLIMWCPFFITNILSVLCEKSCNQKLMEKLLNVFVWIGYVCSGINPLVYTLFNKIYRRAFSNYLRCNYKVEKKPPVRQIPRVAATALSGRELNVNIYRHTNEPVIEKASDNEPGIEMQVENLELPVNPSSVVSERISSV
Procedure, shortened: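 Competition radioligand binding: varying test-compound concentrations incubated with receptor preparation and radioligand to binding equilibrium. Bound radioactivity separated from free and counted; affinity inferred from concentration-dependent inhibition of radioligand binding.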

T3 sequence (Q63380 1-617): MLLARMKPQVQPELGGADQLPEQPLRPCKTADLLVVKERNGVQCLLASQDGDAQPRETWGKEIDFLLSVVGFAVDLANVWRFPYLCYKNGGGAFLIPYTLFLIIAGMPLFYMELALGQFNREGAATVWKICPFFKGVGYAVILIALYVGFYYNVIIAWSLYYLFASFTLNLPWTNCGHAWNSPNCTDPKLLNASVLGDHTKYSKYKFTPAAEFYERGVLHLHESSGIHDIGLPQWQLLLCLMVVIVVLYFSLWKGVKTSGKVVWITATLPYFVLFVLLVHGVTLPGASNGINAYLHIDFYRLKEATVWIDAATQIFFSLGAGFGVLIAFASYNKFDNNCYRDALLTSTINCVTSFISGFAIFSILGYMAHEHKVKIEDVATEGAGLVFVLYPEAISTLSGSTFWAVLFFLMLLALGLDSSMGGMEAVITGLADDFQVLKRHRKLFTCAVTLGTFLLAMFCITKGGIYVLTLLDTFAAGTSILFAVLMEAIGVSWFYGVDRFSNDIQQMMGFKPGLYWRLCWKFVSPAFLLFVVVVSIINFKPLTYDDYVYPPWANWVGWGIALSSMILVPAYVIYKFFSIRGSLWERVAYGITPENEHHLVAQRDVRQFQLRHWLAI
T2 sequence (P14416 whole entry): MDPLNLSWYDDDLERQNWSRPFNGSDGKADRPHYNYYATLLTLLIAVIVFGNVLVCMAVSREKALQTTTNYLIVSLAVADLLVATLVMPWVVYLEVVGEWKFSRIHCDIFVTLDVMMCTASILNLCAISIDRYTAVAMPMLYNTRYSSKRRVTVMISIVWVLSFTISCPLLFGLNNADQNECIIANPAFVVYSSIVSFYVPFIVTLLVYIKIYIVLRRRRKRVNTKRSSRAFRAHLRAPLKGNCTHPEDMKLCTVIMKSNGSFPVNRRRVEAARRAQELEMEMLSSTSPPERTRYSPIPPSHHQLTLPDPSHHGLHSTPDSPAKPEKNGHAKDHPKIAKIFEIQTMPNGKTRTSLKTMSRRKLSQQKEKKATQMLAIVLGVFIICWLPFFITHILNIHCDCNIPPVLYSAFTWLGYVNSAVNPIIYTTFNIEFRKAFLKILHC
T1 sequence (P28223 whole entry): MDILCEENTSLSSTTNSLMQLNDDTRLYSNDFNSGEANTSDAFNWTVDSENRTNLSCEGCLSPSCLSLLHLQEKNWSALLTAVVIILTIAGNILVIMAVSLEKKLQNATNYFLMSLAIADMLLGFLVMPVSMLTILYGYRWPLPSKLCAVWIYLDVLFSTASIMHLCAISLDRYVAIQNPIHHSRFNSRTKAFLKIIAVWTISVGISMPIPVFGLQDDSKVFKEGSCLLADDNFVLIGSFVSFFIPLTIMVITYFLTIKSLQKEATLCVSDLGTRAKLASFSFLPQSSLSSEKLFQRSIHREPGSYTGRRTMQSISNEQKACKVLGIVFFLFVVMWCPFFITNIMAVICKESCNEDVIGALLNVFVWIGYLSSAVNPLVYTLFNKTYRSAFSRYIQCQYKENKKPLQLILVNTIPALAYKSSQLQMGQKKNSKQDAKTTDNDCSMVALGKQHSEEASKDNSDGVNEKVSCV

Row | SMILES | IC50 [1] [nM] | IC50 [2] [nM] | IC50 [3] [nM] | IC50 [4] [nM] | 5-HT2A pIC50 [1] | D2L pIC50 [2] | NET pIC50 [3] | 5-HT2C pIC50 [4]
1 | O=C(C1CC1)N1CCN(C[C@H]2C[C@@H]3c4ccccc4Cc4ccc(F)cc4[C@@H]3O2)CC1 [Compound 78, [2R-(2α, 3aα, 12bβ)]cyclopropyl-[4-(11-fluoro-3,3a, 8,12b-tetrahydro-2H-1-oxa-dibenzo[e,h]azulen-2-ylmethyl)-piperazin-1-yl]-methanone.oxalate (1:1)] | 2.24 | 36.3 | > 10000 | 8.91 | – | – | – | –
2 | N#CC1=CCN(C[C@H]2C[C@@H]3c4ccccc4Cc4ccc(F)cc4[C@@H]3O2)CC1.O=C(O)C(F)(F)F [Compound 270] | – | – | – | – | 7.18 | 6.67 | 5.78 | 7.45
3 | COc1cccc(OC2CCN(CC3CC4c5ccccc5Cc5ccc(F)cc5C4O3)C2)c1 (mixture of isomers) [Compound 31] | 9.77 | 13.5 | 4070 | 3.24 | – | – | – | –
4 | O=C(c1ccccc1)N1CCN(CC2CC3c4ccccc4Cc4ccc(F)cc4C3O2)CC1 (stereo not drawn) [Compound 82, [2R-(2α, 3aα, 12bβ)][4-(11-fluoro-3,3a,8,12b-tetrahydro-2H-1-oxa-dibenzo[e,h]-azulen-2-ylmethyl)-piperazin-1-yl]-phenyl-methanone.oxalate (1:1)] | 2.14 | 19.5 | > 10000 | 3.24 | – | – | – | –
5 | O=C(O)C(=O)O.OCC1CCCN(C[C@H]2C[C@@H]3c4ccccc4Cc4ccc(F)cc4[C@@H]3O2)C1 (single isomer, unassigned) [Compound 149] | – | – | – | – | 9.08 | 8.61 | <5.52 | 9.10
6 | CN(CCO)CCC1CN(CC2CC3c4ccccc4Cc4ccc(F)cc4C3O2)CCO1 (mixture of isomers) [Compound 133] | 49 | 355 | 933 | 34.7 | – | – | – | –
7 | COC(=O)C1CCN(C[C@H]2C[C@@H]3c4ccccc4Cc4ccc(F)cc4[C@@H]3O2)C1 (some centres unmarked) [Compound 12] | 1.17 | 6.31 | 759 | 2.04 | – | – | – | –
8 | Fc1ccc2c(c1)C1OC(CN3CCN(c4nc5ccccc5s4)CC3)CC1c1ccccc1C2 (centres unmarked) [Compound 125] | 17.4 | 257 | > 10000 | 77.6 | – | – | – | –
9 | Fc1ccc2c(c1)C1OC(CN3CCN(c4ncccc4C(F)(F)F)CC3)CC1c1ccccc1C2 (centres unmarked) [Compound 121] | 13.2 | 77.6 | 3550 | 77.6 | – | – | – | –
10 | Fc1ccc2c(c1)C1OC(CN3CCN(Cc4cccs4)CC3)CC1c1ccccc1C2 (centres unmarked) [Compound 58] | 11 | 7.41 | 977 | 25.7 | – | – | – | –
11 | O=C(O)C(=O)O.OCC1CCCN(C[C@H]2C[C@@H]3c4ccccc4Cc4ccc(F)cc4[C@@H]3O2)C1 (single isomer, unassigned) [Compound 148] | – | – | – | – | 8.87 | 8.35 | <5 | 8.71
12 | Fc1ccc2c(c1)C1OC(CN3CCN(Cc4cccc(Oc5ccccc5)c4)CC3)CC1c1ccccc1C2 (centres unmarked) [Compound 76] | 66.1 | 67.6 | 851 | 102 | – | – | – | –
13 | OCC1CCN(C[C@H]2C[C@@H]3c4ccccc4Cc4ccc(F)cc4[C@@H]3O2)C1 (some centres unmarked) [Compound 5] | < 10 | 8.51 | 4070 | 0.204 | – | – | – | –
14 | OCC1CCCN(C[C@H]2C[C@@H]3c4ccccc4Cc4ccc(F)cc4[C@@H]3O2)C1 (stereo partly drawn) [Compound 147, [2R-(2α, 3aα, 12bβ)]-(3′RS)-[1-(11-fluoro-3,3a,8,12b-tetrahydro-2H-1-oxa-dibenzo[e,h]azulen-2-ylmethyl)-piperidin-3-yl]-methanol.oxalate (1:1)] | 1.1 | 4.79 | > 10000 | 1.26 | – | – | – | –
15 | Fc1ccc2c(c1)C1OC(CN3CCN(Cc4cc5ccccc5o4)CC3)CC1c1ccccc1C2 (centres unmarked) [Compound 64] | 26.3 | 15.5 | 2690 | 28.8 | – | – | – | –
16 | Fc1ccc2c(c1)C1OC(CN3CCN(C(=S)NC4CCCCC4)CC3)CC1c1ccccc1C2 (centres unmarked) [Compound 114] | 6.17 | 45.7 | 1100 | 20.9 | – | – | – | –
17 | CCOC(=O)CNC(=S)N1CCN(CC2CC3c4ccccc4Cc4ccc(F)cc4C3O2)CC1 (centres unmarked) [Compound 110] | 6.17 | 36.3 | 5750 | 47.9 | – | – | – | –
